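Tested at 5 concentrations; 48 h exposure; 96-well plates; endpoints linearly interpolated, else capped at highest concentration. GI50 = concentration required for 50% inhibition of growth. Definition used: TGI = concentration required for complete inhibition of growth.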 Where only a bound is given, the exact number is not on record here.

Holding throughout (assay): NCI tumour cell line growth inhibition, 48 h
Assay [1] deals with MDA-N.
The test system of assay [2] is KM20L2 colon.
Assay [3] has as its system SNB-78 CNS.
Assay [4] has as its system XF 498 CNS.
In assay [5] the test system is LXFL 529 NSCLC.
The test system of assay [6] is DMS 114 small cell lung.
The test system of assay [7] is BT-549 breast.
In assay [8] the test system is RXF-631 renal.
Assay [9] concerns HS 578T breast.

In the case of `CC1=Cc2cc3[n-]c(cc4nc(cc5[n-]c(cc1n2)cc5C)C(C)=C4CCC(=O)O)c(CCC(=O)O)c3C.[Pd+2]`, the GI50 in [1] is above 100 µM; in assay [2] it was 17.5 µM; in [3], 6.17 µM; in assay [4], 14.2 µM; in assay [5] it was 2.86 µM; in assay [6] it was 3.18 µM. Moreover, in assay [7], the GI50 was 4.89 µM. In addition, the TGI in assay [1] is above 100 µM; in assay [2] it was 44.3 µM; in assay [3], 28.7 µM; in assay [4] it was 31.5 µM; in assay [5], 11.1 µM; in [6], 11.2 µM. The molecule further registered a TGI in assay [7] above 100 µM.

As to `CCOC(=O)CC1=CSC2=NCCN12`, the TGI in [2], in assay [3], in [4], in [8], in assay [5] and in [6] was above 100 µM in each case.

For `c1ccc(N=C2c3ccccc3C3=NCCCN32)cc1`, the TGI in assay [2], in assay [3], in assay [4], in [8], in [5] and in assay [6] was above 100 µM throughout.

In the case of `CC(c1cccc2ccccc12)/[N+]([O-])=C/c1ccccc1` (stereo unspecified), the TGI in [2], in [4], in [8], in assay [5] and in assay [6] was above 100 µM in each case.

On to `CS(=O)c1ccc(COP(N)(=O)N(CCCl)CCCl)cc1` (stereo unspecified), for which the TGI in assay [2], in assay [3], in [4], in assay [5] and in assay [6] was above 100 µM each time.

With `ON=C1CCC(c2ccccc2)CC1` (stereo unspecified), the TGI in [2], in assay [3], in assay [4], in [5] and in assay [6] was above 100 µM throughout.

As for `CCOC(CN=c1nc(N(C)C)ss1)OCC`, the TGI is 24.8 µM in assay [1]; above 72.5 µM in assay [2]; 51.5 µM in assay [3]; 47.1 µM in assay [4]; 32.5 µM in [8]; 20.5 µM in assay [5]. In addition, the TGI in [6] is 32.9 µM; in assay [9] it was above 82.5 µM; in [7], 55.5 µM.

Turning to `CCOC(=O)C(C)c1cc(C2(C)OCCO2)c(C)o1` (stereo unspecified), the TGI in assay [2], in assay [3], in assay [4], in [8], in assay [5] and in assay [6] was above 100 µM throughout.

`O=C(c1ccccc1)c1c(C(=O)c2ccccc2)c(-c2ccccc2)c2c(-c3ccccc3)sc(-c3ccccc3)c2c1-c1ccccc1`: the TGI in assay [2], in assay [3], in assay [4], in [8], in assay [5] and in [6] was above 100 µM in each case.

Turning to `O=[N+]([O-])C1C2C=CC(C2)[C@H]1c1ccccc1Cl` (stereo partly specified), the TGI in assay [2], in assay [3], in [4], in assay [8] and in assay [5] was above 100 µM each time.

Turning to `N#CC12C3C4CC5C6C4C1C6C(O)(C53)N2Cc1ccccc1` (stereo unspecified), the TGI in assay [2], in [4], in assay [8], in [5] and in [6] was above 100 µM throughout.

For `C[C@]12CCC(=O)C(O)=C1CC[C@@H]1[C@@H]2CC[C@]2(C)C(=O)CC[C@@H]12`, the TGI in assay [1], in assay [2], in assay [3], in [4], in assay [8] and in [5] was above 100 µM each time. Moreover, the TGI in assay [6], in assay [9] and in assay [7] was above 100 µM each time.

Regarding `O=S1(=O)C[C@@H](O)[C@H](O)CS1`, the TGI in assay [2], in assay [3], in assay [4], in [5] and in assay [6] was above 100 µM each time.

As to `Nc1c(-c2nc3ccccc3[nH]2)sc(=S)n1-c1ccccc1`, the TGI in assay [3], in [8], in assay [5] and in assay [6] was above 100 µM throughout.

As for `CCOC(=O)C1C(=O)c2ccccc2CN1Cc1ccccc1` (stereo unspecified), the TGI in assay [2], in assay [3], in assay [4], in assay [8], in [5] and in [6] was above 100 µM each time.

As to `CC(=O)OCC1OC(n2c(=O)n(-c3ccccc3)c(=O)c3ccccc32)C(OC(C)=O)C(OC(C)=O)C1OC(C)=O` (stereo unspecified), the TGI in assay [2], in assay [3], in assay [8], in [5] and in assay [6] was above 100 µM throughout.

For the molecule `CCOP(=O)(OCC)/C(C#N)=C/c1ccco1`, the TGI in assay [3], in assay [4], in assay [8], in assay [5] and in [6] was above 100 µM in each case.

For `COC(=O)c1c(CC#N)cccc1CC#N`, the TGI in assay [2], in [4], in assay [8], in assay [5] and in assay [6] was above 100 µM throughout.

The values are drawn from PubChem BioAssay (NCI).
